Laboratory results reported in patent publication US11072588B2, “Barbituric acid derivatives comprising cationic and lipophilic groups” (UNIVERSITETET I TROMSØ—NORGES ARKTISKE UNIVERSITET, priority 2017, dated 2021).
In brackets after ≈: the same amount, converted by molar mass.

Columns and labels:
K. pneumoniae 50531633 = experiment: MIC, multi-resistant clinical isolate; type: cell-based, Klebsiella pneumoniae; conditions: K. pneumoniae 50531633, resistant to colistin; for MIC: Klebsiella pneumoniae, 24 h, read-out: Antimicrobial activity (MIC); for selectivity index (EC50/MIC): RBC EC50 / MIC
K. pneumoniae 50625602 = experiment: MIC, multi-resistant clinical isolate; type: cell-based, Klebsiella pneumoniae; conditions: for MIC: Klebsiella pneumoniae, read-out: Antimicrobial activity (MIC); for selectivity index (EC50/MIC): RBC EC50 / MIC
human RBCs = experiment: Determination of haemolytic activity; type: cell-based
Outline: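 Heparinized fresh blood was washed in PBS, and RBCs were used at 1% v/v final with test compounds at 500–4 μM (DMSO ≤1%) for 1 h at 37 °C. Haemoglobin release was read at 545 nm and expressed relative to 1% Triton X-100 after PBS background correction. EC50 values are means of three independent experiments.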

With `NCCCCN1C(=O)N(CCCCN)C(=O)C(Cc2cc(Br)cc(Br)c2)(Cc2cc(Br)cc(Br)c2)C1=O` [7(ii)] the MIC (K. pneumoniae 50531633) was 8 µg/mL (≈ 10.4 µM) and the “selectivity index (EC50/MIC)” value (K. pneumoniae 50531633) was “(10)”.
`CC(C)(C)c1cc(CC2(Cc3cc(C(C)(C)C)cc(C(C)(C)C)c3)C(=O)N(CCCCN)C(=O)N(CCCCN)C2=O)cc(C(C)(C)C)c1` [7(iii), 1,3-bis(4-aminobutyl)-5,5-bis(3,5-di-tert-butylbenzyl)-pyrimidin-2,4,6(1H,3H,5H)-trione] was tested, and the MIC (K. pneumoniae 50531633) was 8 µg/mL (≈ 11.9 µM), the “selectivity index (EC50/MIC)” value (K. pneumoniae 50531633) was “(<0.5)” and the MIC (K. pneumoniae 50625602) was 8 µg/mL (≈ 11.9 µM). The “selectivity index (EC50/MIC)” value (K. pneumoniae 50625602) was “(<0.5)”.
With `NCCCCN1C(=O)N(CCCCN)C(=O)C(Cc2ccc3ccccc3c2)(Cc2ccc3ccccc3c2)C1=O` [7(iv), 1,3-bis(4-aminobutyl)-5,5-bis(naphtalen-2-yl-methyl)-pyrimidin-2,4,6(1H,3H,5H)-trione] the MIC (K. pneumoniae 50531633) was 32 µg/mL (≈ 58.1 µM), the “selectivity index (EC50/MIC)” value (K. pneumoniae 50531633) was “(8)” and the MIC (K. pneumoniae 50625602) was greater than 32 µg/mL.
With `NCCCCN1C(=O)N(CCCCN)C(=O)C(Cc2ccc(F)c3ccccc23)(Cc2ccc(F)c3ccccc23)C1=O` [7(v), 1,3-bis(4-aminobutyl)-5,5-bis((4-fluoronaphtalen-1-yl)methyl)pyrimidin-2,4,6(1H,3H,5H)-trione] the MIC (K. pneumoniae 50531633) was 16 µg/mL (≈ 27.3 µM), the “selectivity index (EC50/MIC)” value (K. pneumoniae 50531633) was “(10)” and the MIC (K. pneumoniae 50625602) was 32 µg/mL (≈ 54.5 µM). The “selectivity index (EC50/MIC)” value (K. pneumoniae 50625602) was “(5)”.
For `NCCCCN1C(=O)N(CCCCN)C(=O)C(Cc2cc(C(F)(F)F)cc(C(F)(F)F)c2)(Cc2cc(C(F)(F)F)cc(C(F)(F)F)c2)C1=O` [7(vi)], the MIC (K. pneumoniae 50531633) was 32 µg/mL (≈ 44.3 µM), the “selectivity index (EC50/MIC)” value (K. pneumoniae 50531633) was “(6)” and the MIC (K. pneumoniae 50625602) was 32 µg/mL (≈ 44.3 µM). For the same molecule, the “selectivity index (EC50/MIC)” value (K. pneumoniae 50625602) was “(6)”.
`N=C(N)NCCCCN1C(=O)N(CCCCNC(=N)N)C(=O)C(Cc2cc(Br)cc(Br)c2)(Cc2cc(Br)cc(Br)c2)C1=O` [8(ii), 1,1′-(4,4′-(5,5-bis(3,5-dibromobenzyl)-2,4,6-trioxodihydropyrimidine-1,3(2H,4H)-diyl)bis(butane-4,1-diyl))diguanidine] was tested, and the MIC (K. pneumoniae 50531633) was 4 µg/mL (≈ 4.7 µM), the “selectivity index (EC50/MIC)” value (K. pneumoniae 50531633) was “(14)” and the MIC (K. pneumoniae 50625602) was 4 µg/mL (≈ 4.7 µM). The “selectivity index (EC50/MIC)” value (K. pneumoniae 50625602) was “(14)”.
`CC(C)(C)c1cc(CC2(Cc3cc(C(C)(C)C)cc(C(C)(C)C)c3)C(=O)N(CCCCNC(=N)N)C(=O)N(CCCCNC(=N)N)C2=O)cc(C(C)(C)C)c1` [8(iii), 1,1′-(4,4′-(5,5-bis(3,5-di-tert-butylbenzyl)-2,4,6-trioxodihydropyrimidine-1,3(2H,4H)-diyl)bis(butane-4,1-diyl))-diguanidine] was tested, and the MIC (K. pneumoniae 50531633) was 16 µg/mL (≈ 21.1 µM), the “selectivity index (EC50/MIC)” value (K. pneumoniae 50531633) was “(<0.25)” and the MIC (K. pneumoniae 50625602) was 16 µg/mL (≈ 21.1 µM). The “selectivity index (EC50/MIC)” value (K. pneumoniae 50625602) was “(<0.25)”.
With `N=C(N)NCCCCN1C(=O)N(CCCCNC(=N)N)C(=O)C(Cc2ccc3ccccc3c2)(Cc2ccc3ccccc3c2)C1=O` [8(iv), 1,1′-(4,4′-(5,5-bis(naphthalen-2-ylmethyl)-2,4,6-trioxodihydropyrimidine-1,3(2H,4H)-diyl)bis(butane-4,1-diyl))-diguanidine] the MIC (K. pneumoniae 50531633) was 16 µg/mL (≈ 25.2 µM), the “selectivity index (EC50/MIC)” value (K. pneumoniae 50531633) was “(8)” and the MIC (K. pneumoniae 50625602) was 16 µg/mL (≈ 25.2 µM). For the same molecule, the “selectivity index (EC50/MIC)” value (K. pneumoniae 50625602) was “(8)”.
`N=C(N)NCCCCN1C(=O)N(CCCCNC(=N)N)C(=O)C(Cc2ccc(F)c3ccccc23)(Cc2ccc(F)c3ccccc23)C1=O` [8(v), 1,1′-(4,4′-(5,5-bis((4-fluoronaphthalen-1-yl)methyl)-2,4,6-trioxodihydropyrimidine-1,3(2H,4H)-diyl)bis(butane-4,1-diyl))diguanidine] was tested, and the MIC (K. pneumoniae 50531633) was 8 µg/mL (≈ 11.9 µM), the “selectivity index (EC50/MIC)” value (K. pneumoniae 50531633) was “(11)” and the MIC (K. pneumoniae 50625602) was 16 µg/mL (≈ 23.9 µM). The “selectivity index (EC50/MIC)” value (K. pneumoniae 50625602) was “(6)”.
In the case of `CC(C)(C)c1ccc(CC2(Cc3ccc(C(C)(C)C)cc3)C(=O)N(CCCCN)C(=O)N(CCCCN)C2=O)cc1` [Compound 7(i), 1,3-bis(4-aminobutyl)-5,5-bis(4-tertbutylbenzyl) pyrimidin-2,4,6(1H,3H,5H)-trione], the MIC (K. pneumoniae 50531633) is reported as 16 µg/mL (≈ 28.4 µM), the “selectivity index (EC50/MIC)” value (K. pneumoniae 50531633) is reported as “(9)” and the MIC (K. pneumoniae 50625602) is reported as 16 µg/mL (≈ 28.4 µM). The “selectivity index (EC50/MIC)” value (K. pneumoniae 50625602) was “(9)”.
With `CC(C)(C)c1ccc(CC2(Cc3ccc(C(C)(C)C)cc3)C(=O)N(CCCCNC(=N)N)C(=O)N(CCCCNC(=N)N)C2=O)cc1` [Compound 8(i), 1,1′-(4,4′-(5,5-bis(4-tert-butylbenzyl)-2,4,6-trioxodihydropyrimidine-1,3(2H,4H)-diyl)bis(butane-4,1-diyl))diguanidine] the “RBC toxicity compared to the amine 7(i)” value (human RBCs) was “twofold increased RBC toxicity”, the MIC (K. pneumoniae 50531633) was 4 µg/mL (≈ 6.18 µM) and the “selectivity index (EC50/MIC)” value (K. pneumoniae 50531633) was “(19)”. The MIC (K. pneumoniae 50625602) was 4 µg/mL (≈ 6.18 µM) and the “selectivity index (EC50/MIC)” value (K. pneumoniae 50625602) was “(19)”.
